Measured values from patent US4933363A, “Method for effecting systemic delivery of delta-9-tetrahydrocannabinol” (priority 1988, dated 1990).

Columns and labels:
[1] = 4×4 Latin square comparison of i.v., oral and suppository administration (GC/MS plasma levels); conditions: for Mean delta-9-tetrahydrocannabinol level in plasma: four monkeys; for concentration at 0.25 h / concentration at 0.5 h / concentration at 1 h / concentration at 1.5 h / concentration at 2 h / concentration at 3 h / concentration at 4 h / concentration at 6 h / concentration at 8 h / concentration at 24 h / concentration at 0.1 h: monkey, plasma
[2] = Suppository of N-methyl glucamine salt vs free hemisuccinate ester (GC/MS blood levels); conditions: equivalent to 10 mg parent drug per suppository, monkeys
[3] = Bioavailability of parent delta-9-tetrahydrocannabinol from a suppository (GC/MS of blood samples); type: in vivo, monkey; conditions: 10 mg/suppository
Procedure: The parent drug delta-9-tetrahydrocannabinol was formulated in a suppository form at 10 mg/suppository using Witepsol-H15 as the base. One suppository was administered to a monkey and blood samples collected at the same time intervals as shown under Examples II-V. GC/MS analysis of these samples was carried out for delta-9-tetrahydrocannabinol and its metabolite.

[4] = cited from earlier work
[5] = various suppository formulations; cited from earlier work
[6] = i.v., 0.5 mg/kg parent equivalent, 0.0 hr
[7] = Witepsol-H15, one monkey, GC/MS, all time points

## CCCCCc1cc(OC(=O)CCC(=O)O)c2c(c1)OC(C)(C)[C@@H]1CCC(C)=C[C@@H]21 [Delta-9-tetrahydrocannabinol hemisuccinate ester]
[1]; i.v., 0.5 mg/kg parent drug equivalent, monkeys
  equivalency of intravenous dosage of ester to intravenous dosage of parent: equivalency of the intravenous dosage of the hemisuccinate ester of delta-9-tetrahydrocannabinol to the intravenous dosage of the parent delta-9-tetrahydrocannabinol
[1]; [6]
  Mean delta-9-tetrahydrocannabinol level in plasma: 0.0 ng/mL
[1]
  concentration at 0.25 h: 14.8 ng/mL
  concentration at 0.5 h: 33.5 ng/mL
  concentration at 1 h: 46 ng/mL
  concentration at 1.5 h: 53.5 ng/mL
  concentration at 2 h: 53.3 ng/mL
  concentration at 3 h: 50 ng/mL
  concentration at 4 h: 38 ng/mL
  concentration at 6 h: 18.5 ng/mL
  concentration at 8 h: 12.8 ng/mL
  concentration at 24 h: 1.3 ng/mL
[1]; iv, 0.5 mg/kg
  concentration at 0.1 h: 2060 ng/mL
  concentration at 0.25 h: 669 ng/mL
  concentration at 0.5 h: 251 ng/mL
  concentration at 1 h: 95.8 ng/mL
  concentration at 1.5 h: 65.3 ng/mL
  concentration at 2 h: 42.5 ng/mL
  concentration at 3 h: 26.3 ng/mL
  concentration at 4 h: 18.5 ng/mL
  concentration at 6 h: 13 ng/mL
  concentration at 8 h: 8 ng/mL
  concentration at 24 h: 2.5 ng/mL
[1]; suppository vs oral 10 mg, monkeys
  delivery of delta-9-tetrahydrocannabinol to the blood vs oral sesame seed oil formulation of parent: extraordinary superiority
[1]; suppository, 0.0 hr
  Mean delta-9-tetrahydrocannabinol level in plasma: 0.0 ng/mL
[1]; suppository, 0.1 hr
  Mean delta-9-tetrahydrocannabinol level in plasma: 0.0 ng/mL
[2]
  blood levels, free ester vs N-methyl glucamine salt suppository: virtually equivalent

## CCCCCc1cc(O)c2c(c1)OC(C)(C)[C@@H]1CCC(C)=C[C@@H]21 [delta-9-tetrahydrocannabinol]
[3]; Witepsol-H15, monkey
  bioavailability from a suppository dosage form: lack of bioavailability
[3]; [7]
  delta-9-tetrahydrocannabinol detected in blood samples: Neither delta-9-tetrahydrocannabinol nor its metabolite was detected
  metabolite (11-nor-delta-9-tetrahydrocannabinol-9-COOH) detected in blood samples: Neither delta-9-tetrahydrocannabinol nor its metabolite was detected
[1]; [6]
  Mean delta-9-tetrahydrocannabinol level in plasma: 0.0 ng/mL
[1]; iv, 0.5 mg/kg
  concentration at 0.1 h: 1680 ng/mL
  concentration at 0.25 h: 335 ng/mL
  concentration at 0.5 h: 170 ng/mL
  concentration at 1 h: 102 ng/mL
  concentration at 1.5 h: 67.3 ng/mL
  concentration at 2 h: 55.8 ng/mL
  concentration at 3 h: 34 ng/mL
  concentration at 4 h: 22.8 ng/mL
  concentration at 6 h: 29 ng/mL
  concentration at 8 h: 17.3 ng/mL
  concentration at 24 h: 2.5 ng/mL
[1]; po, 10 mg
  concentration at 3 h: 0.5 ng/mL
  concentration at 4 h: 1.3 ng/mL
  concentration at 6 h: 2.3 ng/mL
  concentration at 8 h: 4.3 ng/mL
  concentration at 24 h: 0.8 ng/mL
[1]; oral, 10 mg in sesame oil, 0.0 hr
  Mean delta-9-tetrahydrocannabinol level in plasma: 0.0 ng/mL
[1]; oral, 10 mg in sesame oil, 0.1 hr
  Mean delta-9-tetrahydrocannabinol level in plasma: 0.0 ng/mL
[1]; oral, 10 mg in sesame oil, 0.25 hr
  Mean delta-9-tetrahydrocannabinol level in plasma: 0.0 ng/mL
[1]; oral, 10 mg in sesame oil, 0.5 hr
  Mean delta-9-tetrahydrocannabinol level in plasma: 0.0 ng/mL
[1]; oral, 10 mg in sesame oil, 1.0 hr
  Mean delta-9-tetrahydrocannabinol level in plasma: 0.0 ng/mL
[1]; oral, 10 mg in sesame oil, 1.5 hr
  Mean delta-9-tetrahydrocannabinol level in plasma: 0.0 ng/mL
[1]; oral, 10 mg in sesame oil, 2.0 hr
  Mean delta-9-tetrahydrocannabinol level in plasma: 0.0 ng/mL
[4]; oral (e.g. chocolate cookies, sesame oil capsules)
  bioavailability via the oral routes: quite low
[4]; oral, fasting or food deprivation
  effect of fasting or food deprivation on absorption from the gastrointestinal tract: decreased by fasting or food deprivation
[4]; oral, patients
  interpatient variability in absorption: extreme interpatient variability in absorption
[4]; oral
  oral absorption: slow and erratic
[5]
  absorption and bioavailability via the rectal route: no absorption, consequently no bioavailability achieved via the rectal route
